Measurements reported in patent publication US5574070A, “Substituted guanidines having high binding to the sigma receptor and the use thereof” (priority 1993, dated 1996).
Entries after “also recorded” stand apart in the source; their conditions may differ. Structures can show the parent of a compound that is named as a salt. Where two headings read alike, the source gives them in different places.

How the values were obtained:
anxiety behavior of mice = assay: black:white test box (light/dark exploration) of mice; conditions: for anxiolytic activity: 1 mg/kg
sigma receptor = assay: [3H]DTG displacement radioligand binding assay, guinea pig brain membranes; conditions: for displacement of [3H]DTG: 10 uM
[1] = Example 25, guinea pig brain membrane homogenates, read-out: IC50 binding values
[2] = list of especially preferred compounds, read-out: IC50 (high binding to the sigma receptor)
[3] = read-out: IC50 vs [3H]DTG, Table I, guinea pig brain membranes

N=C(Nc1ccccc1I)Nc1ccccc1C=Cc1ccccc1 [N-(2-styrylphenyl)-N'-(2-iodophenyl)guanidine]
latency to entering the dark compartment (anxiety behavior of mice; i.p.): decreased the latency to entering the dark compartment | numbers of line crossings and/or rears in the light compartment (anxiety behavior of mice; i.p.): did not affect the numbers of line crossings or rears in the light compartment | proportion of time in light area / percentage of time in black compartment (anxiety behavior of mice; i.p.): No significant change in the percentage time in the black compartment

N=C(NC12CC3CC(CC(C3)C1)C2)NC12CC3CC(CC(C3)C1)C2 [DAG, N,N'-di-(adamantan-1-yl)guanidine]
in vitro [3H]DTG displacement activity (sigma receptor): found to possess the aforesaid in vitro [^3 H]DTG displacement activity | IC50 (sigma receptor; [1]): 11.8 ± 3.4 nM | IC50 (sigma receptor; [2]): 16.5 nM | IC50 (sigma receptor; [3]): 17 ± 3 nM | latency to entering the dark compartment (anxiety behavior of mice; oral): increase in the latency to entering the dark compartment | numbers of line crossings and/or rears in the light compartment (vs dark) (anxiety behavior of mice; oral): increase in the numbers of line crossings and rears in the light compartment | sedation: total numbers of rears and line crossings (anxiety behavior of mice; oral): did not decrease significantly | anxiolytic activity (anxiety behavior of mice; oral): have anxiolytic activity when orally administered | numbers of line crossings and/or rears in the light compartment (vs dark) (anxiety behavior of mice; s.c.): increased at the expense of those in the dark compartment | proportion of time spent in the lighted area (anxiety behavior of mice; s.c.): tended to increase the proportion of time the mice spent in the larger, lighted area | sedation: total numbers of rears and line crossings (anxiety behavior of mice; s.c.): did not decrease significantly showing that the drug was not sedative at this level

N=C(NC1CCCCC1)NC12CC3CC(CC(C3)C1)C2 [AdChG, N, Adamantan-1-yl-N'-cyclohexylguanidine HCl]
in vitro [3H]DTG displacement activity (sigma receptor): found to possess the aforesaid in vitro [^3 H]DTG displacement activity | IC50 (sigma receptor; [1]): 12.5 ± 2.2 nM | IC50 (sigma receptor; [2]): 12.5 nM | IC50 (sigma receptor; [3]): 13 ± 2 nM | latency to entering the dark compartment (anxiety behavior of mice; s.c.): dose-dependent increase in the latency to entering the dark compartment | numbers of line crossings and/or rears in the light compartment (vs dark) (anxiety behavior of mice; s.c.): increase in the number of rears in the light compartment | sedation: total numbers of rears and line crossings (anxiety behavior of mice; s.c.): did not change significantly, showing that the drug was not sedative

Cc1ccccc1NC(=N)NC1CCCCC1 [N-Cyclohexyl-N'-(2-methylphenyl)guanidine]
in vitro [3H]DTG displacement activity (sigma receptor): found to possess the aforesaid in vitro [^3 H]DTG displacement activity | IC50 (sigma receptor; [1]): 13 ± 1 nM | IC50 (sigma receptor; [2]): 13 nM | IC50 (sigma receptor; [3]): 17 ± 5 nM | latency to entering the dark compartment (anxiety behavior of mice; oral): slight increase in the latency to entering the dark compartment | numbers of line crossings and/or rears in the light compartment (vs dark) (anxiety behavior of mice; oral): increase in the total numbers of rears in the light compartment | proportion of time in light area / percentage of time in black compartment (anxiety behavior of mice; oral): significant decrease in the percentage of time in the black compartment | sedation: total numbers of rears and line crossings (anxiety behavior of mice; oral): did not change significantly, showing that the compound was not sedative | latency to entering the dark compartment (anxiety behavior of mice; s.c.): increase in the latency to entering the dark compartment | numbers of line crossings and/or rears in the light compartment (vs dark) (anxiety behavior of mice; s.c.): increased in a dose-dependent manner at the expense of those in the dark compartment | proportion of time spent in the lighted area (anxiety behavior of mice; s.c.): increases significantly the proportion of time the mice spent in the larger, lighted area | sedation: total numbers of rears and line crossings (anxiety behavior of mice; s.c.): did not decrease significantly, showing that the drug was not sedative

CC12CC3CC(C)(C1)CC(/N=C(\N)Nc1ccccc1/C=C/c1ccccc1)(C3)C2 [Example F-114-B, N-(3,5-dimethyladamantan-1-yl)-N'-[(E)-2-phenylethenyl]phenylguanidine]
sedation: total numbers of rears and line crossings (anxiety behavior of mice; s.c.): did not decrease significantly showing that the drug was not sedative at this level

Cc1ccccc1NC(=N)N[C@H]1C[C@@H]2CC[C@H]1C2 (relative stereo) [N-(exo-2-norbornyl)-N'-(2-methylphenyl)guanidine]
IC50 (sigma receptor; [2]): 7 nM | latency to entering the dark compartment (anxiety behavior of mice; oral): increase in the latency to entering the dark compartment | numbers of line crossings and/or rears in the light compartment (vs dark) (anxiety behavior of mice; oral): increase in the number of rears in the light compartment | proportion of time in light area / percentage of time in black compartment (anxiety behavior of mice; oral): decrease in the percentage time spent in the black compartment | sedation: total numbers of rears and line crossings (anxiety behavior of mice; oral): did not decrease significantly, showing that the drug was not sedative | latency to entering the dark compartment (anxiety behavior of mice; s.c.): increase in the latency to entering the dark compartment when administered at 0.1 mg/kg | numbers of line crossings and/or rears in the light compartment (vs dark) (anxiety behavior of mice; s.c.): increase in the number of rears in the light compartment | sedation: total numbers of rears and line crossings (anxiety behavior of mice; s.c.): did not decrease significantly, showing that the drug was not sedative

Cc1ccccc1NC(=N)Nc1ccc(N=[N+]=[N-])cc1C [N-(2-Methyl-4-azido-phenyl)-N'-(2-methylphenyl)guanidine]
in vitro [3H]DTG displacement activity (sigma receptor): found to possess the aforesaid in vitro [^3 H]DTG displacement activity | IC50 (sigma receptor; [2]): 20 nM | IC50 (sigma receptor; [3]): 20 ± 1 nM

Clc1cccc(Cl)c1N=C1NCCN1 [Clonidine, reference compound]
IC50 (sigma receptor; read-out: IC50 vs. [3H]DTG): > 10000 nM

CN(C)CCCN1c2ccccc2Sc2ccc(Cl)cc21 [Chlorpromazine, reference compound]
IC50 (sigma receptor; read-out: IC50 binding values): 1480 ± 265 nM | IC50 (sigma receptor; read-out: IC50 vs. [3H]DTG): 1480 nM

CCc1cccc(N2CCN(c3cccc(CC)c3)C2=N)c1 [N,N'-Bis (3-ethylphenyl)-2-imino-imidazolidine]
IC50 (sigma receptor; [2]): 70 nM

Cc1ccccc1NC(=N)Nc1c(C)cccc1C [N-(2,6-dimethylphenyl)-N'-(2-methylphenyl)-guanidine]
in vitro [3H]DTG displacement activity (sigma receptor): found to possess the aforesaid in vitro [^3 H]DTG displacement activity | IC50 (sigma receptor; [1]): 70 nM | IC50 (sigma receptor; [2]): 70 nM | IC50 (sigma receptor; [3]): 70 ± 3 nM

Cc1cc(I)ccc1NC(=N)Nc1ccc(I)cc1C [N,N'-di-(2-methyl-4-iodophenyl)guanidine]
in vitro [3H]DTG displacement activity (sigma receptor): found to possess the aforesaid in vitro [^3 H]DTG displacement activity

Cl.N=C(Nc1ccccc1I)NC12CC3CC(CC(C3)C1)C2 [AdIpG, N-(Adamantan-1-yl)-N'-(2-iodophenyl)guanidine HCl]
in vitro [3H]DTG displacement activity (sigma receptor): found to possess the aforesaid in vitro [^3 H]DTG displacement activity | IC50 (sigma receptor; [1]): 6.2 ± 0.7 nM | IC50 (sigma receptor; [2]): 6.2 nM | IC50 (sigma receptor; [3]): 5 ± 1 nM | latency to entering the dark compartment (anxiety behavior of mice; oral): increase in the latency to entering the dark compartment | numbers of line crossings and/or rears in the light compartment (vs dark) (anxiety behavior of mice; oral): increase in the numbers of line crossings and rears in the light compartment | sedation: total numbers of rears and line crossings (anxiety behavior of mice; oral): did not decrease significantly | anxiolytic activity (anxiety behavior of mice; oral): have anxiolytic activity when orally administered | latency to entering the dark compartment (anxiety behavior of mice; s.c.): increased in a dose-dependent manner | numbers of line crossings and/or rears in the light compartment (vs dark) (anxiety behavior of mice; s.c.): increased at the expense of those in the dark compartment | proportion of time spent in the lighted area (anxiety behavior of mice; s.c.): increased, in a dose-dependent manner, the proportion of time the mice spent in the larger, lighted area | sedation: total numbers of rears and line crossings (anxiety behavior of mice; s.c.): did not decrease significantly showing that the drug was not sedative at this level

CNCCC=C1c2ccccc2CCc2ccccc21 [Nortriptyline, reference compound]
IC50 (sigma receptor; read-out: IC50 vs. [3H]DTG): 2000 nM

picrotoxin [reference compound]
displacement of [3H]DTG (sigma receptor): no significant displacement

C=CCN1CCC2(C)c3cc(O)ccc3CC1C2C (single isomer, unassigned; (+)) [(+)SKF 10,047, N-allyl-normetazocine, reference compound]
IC50 (sigma receptor; read-out: IC50 vs. [3H]DTG): 625 ± 88 nM

N=C(N)NCCCC(=O)O [gamma-guanidino butyric acid, reference compound]
displacement of [3H]DTG (sigma receptor): no significant displacement

N=C(NCc1ccccc1)NCc1ccccc1 [N,N'-dibenzylguanidine]
in vitro [3H]DTG displacement activity (sigma receptor): found to possess the aforesaid in vitro [^3 H]DTG displacement activity | IC50 (sigma receptor; [1]): 90 nM | IC50 (sigma receptor; [2]): 90 nM

O=C1CC2(CCCC2)CC(=O)N1CCCCN1CCN(c2nsc3ccccc23)CC1 [tiospirone, reference compound]
IC50 (sigma receptor; [1]): 233 ± 52 nM

CNC(=N)N [methyl-guanidine, reference compound]
displacement of [3H]DTG (sigma receptor): no significant displacement

N=C(Nc1ccccc1I)N[C@@H]1C[C@@H]2CC[C@H]1C2 (relative stereo) [N-((±)-endo-2-norbornyl)-N'-(2-iodophenyl)guanidine]
IC50 (sigma receptor; [2]): 5 nM | latency to entering the dark compartment (anxiety behavior of mice; oral): increase in the latency to entering the dark compartment | numbers of line crossings and/or rears in the light compartment (vs dark) (anxiety behavior of mice; oral): increase in the number of rears in the light compartment | proportion of time in light area / percentage of time in black compartment (anxiety behavior of mice; oral): decrease in the percentage time spent in the black compartment | sedation: total numbers of rears and line crossings (anxiety behavior of mice; oral): did not decrease significantly, showing that the drug was not sedative | latency to entering the dark compartment (anxiety behavior of mice; s.c.): dose-dependent increase in the latency to entering the dark compartment | numbers of line crossings and/or rears in the light compartment (vs dark) (anxiety behavior of mice; s.c.): significant dose-dependent increase in the number of rears in the light compartment | sedation: total numbers of rears and line crossings (anxiety behavior of mice; s.c.): did not decrease significantly, showing that the drug was not sedative

CC12CC3CC(C)(C1)CC(NC(=N)Nc1ccccc1I)(C3)C2 [N-(3,5-dimethyl-1-adamantanyl)-N'-(o-iodophenyl)guanidine]
in vitro [3H]DTG displacement activity (sigma receptor): found to possess the aforesaid in vitro [^3 H]DTG displacement activity | IC50 (sigma receptor; [1]): 16 nM | IC50 (sigma receptor; [2]): 16 nM

O=C(CCCN1CCC(O)(c2ccc(Cl)cc2)CC1)c1ccc(F)cc1 [Haloperidol, reference compound]
affinity for / displacement at the [3H]DTG binding site (sigma receptor): all specific binding is displaceable by haloperidol; also recorded: highest displacement potency of all drugs tested

N=C(NC1CC2CCC1C2)NC1CC2CCC1C2 (stereo not drawn) [N,N'-di-(exo-2-norbornyl)guanidine]
in vitro [3H]DTG displacement activity (sigma receptor): found to possess the aforesaid in vitro [^3 H]DTG displacement activity | IC50 (sigma receptor; [1]): 22 nM | IC50 (sigma receptor; [2]): 22 nM

CN(C)CCCN1c2ccccc2Sc2ccc(C(F)(F)F)cc21 [Trifluopromazine, reference compound]
IC50 (sigma receptor; read-out: IC50 vs. [3H]DTG): 605 ± 67 nM

N=C(Nc1ccccc1I)NC1C2CC3CC(C2)CC1C3 (stereo not drawn) [N-(adamant-2-yl)-N'-(2-iodophenyl)guanidine]
IC50 (sigma receptor; [1]): 5.2 nM | IC50 (sigma receptor; [2]): 3.5 nM
